{"source": "patent US12066445B2", "about": "“System and method for cell levitation and monitoring” (THE BRIGHAM AND WOMEN'S HOSPITAL, INC., priority 2014, dated 2024)", "key": {"RBCs": {"tested_on": "RBCs", "experiment": "Levitation of RBCs after photolysis of caged ATP", "assay_type": "cell-based", "settings": "extracellular ATP 0 to close to 10 mM after photolysis, 40 mM Gd+, FIG. 4c", "from_the_text": "Consistent with this possibility that UV-induced ROS increased the paramagnetic signature of RBCs, in areas with increased cell density, RBCs formed distinct aggregates, shown as the red circle in FIG. 4b, likely due to weak paramagnetic attraction between ROS-containing RBCs. To test this hypothesis, a burst of extracellular ATP to dissociate 2-3 DPG (2,3-diphosphoglycerate) from hemoglobin was used, a process that also transitions RBCs from diamagnetic to weak paramagnetic cells. Isolated RBCs were washed and resuspended in HBSS^++ containing 40 mM Gd+ and 10 mM caged ATP (Life Technologies). RBCs were loaded into the capillary, placed between the magnets, and allowed to focus. Next, a region of 60×900 μm located about 70 μm above the levitating RBCs was selected and illuminated by a […] for 1 second at 100% intensity. The un-caged ATP, released into the suspension increased the extracellular concentration of ATP from 0 to nearly 10 mM. Cells were recorded using Slidebook 5.5. Following photolysis, caged-ATP became ATP, effectively increasing the concentration of biologically-active, extracellular ATP from 0 to close to 10 mM. […]"}, "human PMNs": {"tested_on": "human PMNs", "experiment": "Static levitation of activated and GSH-treated PMNs", "assay_type": "cell-based", "experimental": "Freshly isolated PMNs were activated by incubating them either with buffer (resting PMN), GSH-ME (GSH-treated PMN), or 10 nM PMA (activated PMN) for 5 minutes, washing twice, mixing, and resuspending them in 35 mM Gd+ solution. Prior to treatments, cells were labeled either with Cell Tracker Green (activated PMN) or Cell Mask Deep Red (GSH-treated PMN).\nThe response of human PMNs during the activation phase of phagocytosis was studied by incubating PMNs with phorbol 12-myristate 13-acetate (PMA, 10 nM) for 10 minutes. As a control, PMNs were left in buffer for 10 minutes. Cells were then washed, fluorescently labeled, mixed together, and loaded into the magnetic levitation setup.\n[formula] […] The same samples were simultaneously examined by flow cytometry for changes in forward and side-scatter properties of PMNs associated with PMA activation, shown in FIG. 3d.\nTo further understand the effect of intracellular ROS on the final position of levitating cells, cell permeable glutathione (GSH), an ROS scavenger was used."}, "MDA breast cancer cells": {"tested_on": "MDA breast cancer cells", "experimental": "FIG. 12b details the real-time observation of a HCl-applied single cell in which a viability assay was also conducted using Calcein (green fluorescent) for live cell and Propidium Iodine (red fluorescent) for dead cell. Fluorescent images and bright field images were overlapped each other to compose the micrographs at different time point."}, "[1]": {"tested_on": "multi-drug resistant E. coli", "experiment": "Magnetic levitation profile of multi-drug resistant E. coli after antibiotic treatment", "assay_type": "cell-based", "settings": "multi-drug resistant E. coli clinical isolate, 1 mg/mL, two hours, FIG. 22", "experimental": "(§1) In the examples above, to load samples into a microcapillary tube, microcapillaries were simply dipped into the sample vials, and sample filled into the capillary due to capillary forces. For each experiment, new microcapillary was used. Further, unless otherwise stated, cells were resuspended in 200 μL of 40 mM Gadolinium solution and loaded in 1.0×1.0 mm square microcapillary tubes (wall thickness 0.2 mm) by superficial tension action. Critoseal™ was inserted into either end of the microcapillary to prevent cells from drifting during analysis. The capillary was then loaded into a slot between the magnets and cells were imaged using either QImaging Emc^2 EMCCD camera on an Olympus BX62 microscope or a Qimaging EXi CCD camera on a Zeiss Axioscope microscope. For high-resolution images, a fluorescence microscope leveled on its side was perfectly horizontally placed, and used a mirror-free magnetic levitation setup. The images were analyzed with Slidebook 5.5. (3i, Denver, CO), ImageProPlus 7 (Media Cybernetics, Rockville, MD), and iVison 4.7 (Biovision, Exton PA)."}, "E. coli": {"tested_on": "E. coli", "experiment": "Magnetic levitation profile of E. coli after antibiotic treatment", "assay_type": "cell-based", "settings": "for change of levitation heights and cellular magnetic profiles versus untreated control: E. coli treated two hours, 1 mg/mL, FIG. 21", "from_the_text": "As the bacteria respond to the stimuli and antibiotics, their density are altered. This directly reflects on their levitation heights.\nWith forward reference to FIG. 21, differences are illustrated in the observed magnetic levitation profiles of E. coli cells after different types of antibiotic treatment. […] The magnetic levitation profile of each of these antibiotics are compared to a control (i.e., untreated E. coli cells) in FIGS. 21a, 21b, and 21c, respectively.\nas §1"}, "[2]": {"tested_on": "multi-drug resistant E. coli", "settings": "cited from earlier work"}, "yeast cells": {"tested_on": "yeast cells", "experiment": "Viability and magnetic levitation of yeast cells after drug treatment", "assay_type": "cell-based", "settings": "for levitation heights, magnetic properties and intrinsic magnetic signatures of yeast cells: 100 μM for 24 hours, 15 minutes of magnetic levitation, FIG. 14b; for viability of yeast cells (optical density): 100 μM, 24 hours, FIG. 14a", "experimental": "Looking at FIG. 14, the magnetic levitation and characteristics of yeast cells are illustrated that have either not been exposed or have been exposed to various drug treatments for some duration of time. FIG. 14a graphs the viability of yeast cells after different drug treatments (i.e., no drug treatment/control, 100 μM cantharidin, or 100 μM fluconazole) for 24 hours. […] FIG. 14b provides micrographs illustrating how, after 15 minutes of magnetic levitation, the levitation heights, magnetic properties and intrinsic magnetic signatures of yeast cells are altered after drug treatment with 100 μM cantharidin and 100 μM fluconazole for 24 hours.\nTurning now to FIG. 15, this figure provides data relating to the observed drug responses and observed changes in magnetic profile of cells. […] FIG. 15d provides various micrographs of cells treated with different concentration of drug (fluconazole), the treatment concentration being listed above each micrograph. […] It is further noted that these changes can be monitored with the magnetic levitation system at the single-cell level.\nas §1"}, "sickle RBCs": {"tested_on": "sickle RBCs", "experiment": "Levitation of healthy and sickle RBCs after sodium metabisulfite-induced dehydration", "assay_type": "cell-based, human", "settings": "10 μM for 10 minutes at room temperature, images after 10 minutes of levitation", "experimental": "RBCs isolated from healthy and sickle cell disease patients were washed three times and incubated with 10 μM sodium metabisulfite for 10 minutes at room temperature. Cells were levitated as described above and images were recorded after 10 minutes. To increase the contrast of the cells against the background, images were filtered using an edge detection algorithm (Roberts)."}}, "note": "Structures can show the parent of a compound that is named as a salt.", "data": [{"compound": "Nc1ncnc2c1ncn2[C@@H]1O[C@H](COP(=O)(O)OP(=O)(O)OP(=O)(O)O)[C@@H](O)[C@H]1O", "note": "[ATP]", "values": [{"measurement": "changes in magnetic properties and levitation of RBCs", "setting": "RBCs", "result": "loss of levitation"}]}, {"compound": "CCOC(=O)CNC(=O)[C@H](CS)NC(=O)CC[C@H](N)C(=O)O", "note": "[GSH, Glutathione reduced ethyl ester]", "values": [{"measurement": "final levitation position of treated PMNs", "setting": "human PMNs; 35 mM Gd+ solution, FIG. 3e", "result": "equilibrated closer to resting PMNs"}]}, {"compound": "Cl", "note": "[HCl, hydrochloric acid]", "values": [{"measurement": "levitation height z of treated cells (bottom of the channel)", "setting": "MDA breast cancer cells; 40 minutes of exposure to 100 mM HCl, FIG. 12a", "result": "−500", "unit": "μm"}, {"measurement": "viability assay (Calcein / Propidium Iodine) of a single cell", "setting": "MDA breast cancer cells; HCl-applied single cell, over 700 seconds, FIG. 12b", "result": "dying cell"}]}, {"compound": "CCCCCCCCCCCCCC(=O)O[C@@H]1[C@@H](C)[C@@]2(O)[C@@H](C=C(CO)C[C@]3(O)C(=O)C(C)=C[C@@H]23)[C@@H]2C(C)(C)[C@]12OC(C)=O", "note": "[PMA, phorbol 12-myristate 13-acetate]", "values": [{"measurement": "size, shape, optical density, magnetic and mass density signatures versus control PMNs", "setting": "human PMNs; 10 nM for 10 minutes, FIG. 3a", "result": "distinct differences"}, {"measurement": "roundness of cells versus buffer-treated PMNs", "setting": "human PMNs; PMA-activated PMNs, FIG. 3c", "result": "significant difference"}]}, {"compound": "CC1(C)S[C@@H]2[C@H](NC(=O)[C@H](N)c3ccccc3)C(=O)N2[C@H]1C(=O)O", "note": "[ampicillin]", "values": [{"measurement": "change in levitation heights and magnetic levitation profiles", "setting": "[1]", "result": "no significant change"}, {"measurement": "change of levitation heights and cellular magnetic profiles versus untreated control", "setting": "E. coli", "result": "change the levitation heights and cellular magnetic profiles in a different manner"}, {"measurement": "differences between untreated and treated bacteria in magnetic levitation heights", "setting": "E. coli; E. coli, FIG. 13", "result": "significant differences"}, {"measurement": "resistance or susceptibility of the clinical isolate", "setting": "[2]", "result": "resistant"}]}, {"compound": "C[C@@]12C(=O)OC(=O)[C@]1(C)[C@H]1CC[C@@H]2O1", "note": "[cantharidin]", "values": [{"measurement": "levitation heights, magnetic properties and intrinsic magnetic signatures of yeast cells", "setting": "yeast cells", "result": "altered"}, {"measurement": "viability of yeast cells (optical density)", "setting": "yeast cells", "result": "Different viabilities are observed"}]}, {"compound": "O=C(O)c1cn(C2CC2)c2cc(N3CCNCC3)c(F)cc2c1=O", "note": "[ciprofloxacin]", "values": [{"measurement": "change of levitation heights and cellular magnetic profiles versus untreated control", "setting": "E. coli", "result": "change the levitation heights and cellular magnetic profiles in a different manner"}]}, {"compound": "OC(Cn1cncn1)(Cn1cncn1)c1ccc(F)cc1F", "note": "[fluconazole]", "values": [{"measurement": "levitation heights, magnetic properties and intrinsic magnetic signatures of yeast cells", "setting": "yeast cells", "result": "altered"}, {"measurement": "viability of yeast cells (optical density)", "setting": "yeast cells", "result": "Different viabilities are observed"}, {"measurement": "cellular magnetic profiles and single-cell densities", "setting": "yeast cells; 25, 50 or 100 μM, FIG. 15", "result": "cellular magnetic profiles and densities change"}]}, {"compound": "O=S([O-])S(=O)(=O)[O-].[Na+].[Na+]", "note": "[sodium metabisulfite]", "values": [{"measurement": "density of a subpopulation of sickle RBCs after treatment", "setting": "sickle RBCs", "result": "significantly denser than healthy RBCs"}]}, {"compound": "gentamicin", "values": [{"measurement": "change in levitation heights and magnetic levitation profiles", "setting": "[1]", "result": "noticeable change"}, {"measurement": "change of levitation heights and cellular magnetic profiles versus untreated control", "setting": "E. coli", "result": "change the levitation heights and cellular magnetic profiles in a different manner"}, {"measurement": "resistance or susceptibility of the clinical isolate", "setting": "[2]", "result": "susceptible"}]}]}
